This note sets out measurements from ChEMBL document CHEMBL4732204, “Multitargeting application of proline-derived peptidomimetics addressing cancer-related human matrix metalloproteinase 9 and carbonic anhydrase II” (Eur J Med Chem, 2021).

For assay [1], the target named is Matrix metalloproteinase-9 (Homo sapiens, UniProt P14780). As to the kind of experiment: Inhibition of MMP9 (unknown origin) using Mca-Lys-Pro-Leu-Gly-Leu-Dpa-Ala-Arg-NH2 as substrate incubated for 5 min followed by substrate addition and measured for 30 mins by fluorescence based assay.
Chain of Matrix metalloproteinase-9 (P14780 whole entry): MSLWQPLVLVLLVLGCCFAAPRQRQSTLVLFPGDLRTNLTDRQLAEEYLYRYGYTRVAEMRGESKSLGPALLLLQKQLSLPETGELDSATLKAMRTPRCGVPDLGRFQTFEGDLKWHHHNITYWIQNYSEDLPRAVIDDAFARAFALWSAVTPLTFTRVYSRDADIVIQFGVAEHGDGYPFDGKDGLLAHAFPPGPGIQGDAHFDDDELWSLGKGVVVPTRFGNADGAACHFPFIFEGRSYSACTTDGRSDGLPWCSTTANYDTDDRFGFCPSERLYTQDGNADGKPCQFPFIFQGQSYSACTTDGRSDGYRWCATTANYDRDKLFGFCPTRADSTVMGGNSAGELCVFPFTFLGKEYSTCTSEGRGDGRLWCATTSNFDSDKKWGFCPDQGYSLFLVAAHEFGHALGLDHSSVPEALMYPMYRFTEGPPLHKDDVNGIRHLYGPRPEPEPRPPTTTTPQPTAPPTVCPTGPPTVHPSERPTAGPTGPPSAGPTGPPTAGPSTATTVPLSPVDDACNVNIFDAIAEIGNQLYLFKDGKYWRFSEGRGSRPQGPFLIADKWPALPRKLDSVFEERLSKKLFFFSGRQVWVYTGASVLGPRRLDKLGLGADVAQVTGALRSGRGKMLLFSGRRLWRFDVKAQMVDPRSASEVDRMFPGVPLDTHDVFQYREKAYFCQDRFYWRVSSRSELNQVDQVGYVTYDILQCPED
Assay [2] deals with Carbonic anhydrase 1 (Homo sapiens, UniProt P00915). Put plainly: Inhibition of human CA1 incubated for 15 mins by stopped-flow CO2 hydration kinetic assay based Cheng-Prusoff equation analysis.
Chain of Carbonic anhydrase 1 (P00915 whole entry): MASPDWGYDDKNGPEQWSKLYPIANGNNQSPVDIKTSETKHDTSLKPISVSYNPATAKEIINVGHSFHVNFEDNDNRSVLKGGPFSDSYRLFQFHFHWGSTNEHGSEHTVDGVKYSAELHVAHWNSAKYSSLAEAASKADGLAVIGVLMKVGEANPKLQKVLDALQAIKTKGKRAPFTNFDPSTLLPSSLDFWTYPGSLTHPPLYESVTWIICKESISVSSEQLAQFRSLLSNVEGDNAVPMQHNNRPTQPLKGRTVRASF
Assay [3] concerns the target Carbonic anhydrase 2 (Homo sapiens, UniProt P00918). As to the kind of experiment: Inhibition of human CA2 incubated for 15 mins by stopped-flow CO2 hydration kinetic assay based Cheng-Prusoff equation analysis.
In assay [4] the target is 72 kDa type IV collagenase (Homo sapiens, UniProt P08253).
Chain of 72 kDa type IV collagenase (P08253 whole entry): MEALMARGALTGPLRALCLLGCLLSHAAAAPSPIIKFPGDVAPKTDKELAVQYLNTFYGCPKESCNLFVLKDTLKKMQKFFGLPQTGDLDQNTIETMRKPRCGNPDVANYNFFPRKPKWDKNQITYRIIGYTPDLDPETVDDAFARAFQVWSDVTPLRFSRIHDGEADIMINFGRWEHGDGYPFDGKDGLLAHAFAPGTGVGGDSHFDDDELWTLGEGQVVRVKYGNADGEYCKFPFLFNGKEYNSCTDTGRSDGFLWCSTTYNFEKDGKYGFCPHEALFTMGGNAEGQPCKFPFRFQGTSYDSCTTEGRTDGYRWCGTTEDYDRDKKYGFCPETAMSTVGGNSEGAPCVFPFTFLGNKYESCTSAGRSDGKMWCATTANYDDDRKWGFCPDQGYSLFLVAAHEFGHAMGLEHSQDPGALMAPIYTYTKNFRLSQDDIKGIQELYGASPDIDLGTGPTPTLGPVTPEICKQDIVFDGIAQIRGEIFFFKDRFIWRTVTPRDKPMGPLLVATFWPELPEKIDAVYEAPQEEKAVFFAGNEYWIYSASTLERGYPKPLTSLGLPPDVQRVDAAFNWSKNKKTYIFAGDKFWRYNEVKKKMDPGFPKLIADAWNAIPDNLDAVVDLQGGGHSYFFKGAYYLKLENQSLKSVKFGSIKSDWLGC
The target in assay [5] is Carbonic anhydrase 9 (Homo sapiens, UniProt Q16790). Put plainly: Inhibition of human CA9 incubated for 15 mins by stopped-flow CO2 hydration kinetic assay based Cheng-Prusoff equation analysis.
Assay [6] concerns the target Carbonic anhydrase 12 (Homo sapiens, UniProt O43570). As to the kind of experiment: Inhibition of human CA12 incubated for 15 mins by stopped-flow CO2 hydration kinetic assay based Cheng-Prusoff equation analysis.

Chain of Carbonic anhydrase 12 (O43570 whole entry): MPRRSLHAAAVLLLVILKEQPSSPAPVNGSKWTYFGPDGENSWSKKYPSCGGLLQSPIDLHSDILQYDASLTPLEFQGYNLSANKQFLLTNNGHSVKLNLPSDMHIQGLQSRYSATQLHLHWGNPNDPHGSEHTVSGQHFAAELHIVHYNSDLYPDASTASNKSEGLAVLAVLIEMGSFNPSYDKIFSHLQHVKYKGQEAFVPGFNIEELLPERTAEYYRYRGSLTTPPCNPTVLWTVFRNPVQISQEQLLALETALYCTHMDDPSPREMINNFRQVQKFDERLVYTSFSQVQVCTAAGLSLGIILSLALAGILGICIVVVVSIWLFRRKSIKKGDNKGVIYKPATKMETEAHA

One may read the Ki as the dissociation constant of the complex between target and ligand, obtained from inhibition or displacement. High values mean a looser hold on the target, low ones a stronger hold on the target. On to `O=C(NO)[C@H]1C[C@@H](n2cc(-c3ccccc3)nn2)CN1S(=O)(=O)c1ccc(Cl)c(Cl)c1`, for which the inhibition constant (Ki) in assay [1] is over 10 µM; in assay [2] it was over 100 µM; in assay [3], over 100 µM.

Consider `O=C(N[C@H]1C[C@H](C(=O)NO)N(S(=O)(=O)c2ccc(Cl)c(Cl)c2)C1)c1cccs1`, for which the Ki in assay [1] was over 10 µM; in assay [2], over 100 µM; in assay [3], over 100 µM; in assay [4] it was over 10000 nM.

Take `O=C(N[C@@H]1C[C@H](C(=O)NO)N(S(=O)(=O)c2ccc(Cl)c(Cl)c2)C1)c1cccs1`: the inhibition constant (Ki) in assay [1] is 0.091 µM; in assay [2], over 100 µM; in assay [3], over 100 µM; in assay [4], 131 nM.

Turning to `O=C(/C=C/c1ccco1)N[C@H]1C[C@H](C(=O)NO)N(S(=O)(=O)c2ccc(Cl)c(Cl)c2)C1`, the Ki in assay [1] is 0.324 µM; in assay [2], over 100 µM; in assay [3] it was over 100 µM.

With `O=C(NO)[C@H]1[C@@H](OCc2ccccc2)CCN1S(=O)(=O)c1ccc(Cl)c(Cl)c1`, the inhibitory constant (Ki) in assay [1] is over 10 µM; in assay [2] it was over 100 µM; in assay [3] it was over 100 µM.

`CCCCCCO[C@H]1CCN(S(=O)(=O)c2ccc(Cl)cc2)[C@H]1C(=O)NO`: the Ki in assay [1] was over 10 µM; in assay [2], over 100 µM; in assay [3] it was over 100 µM; in assay [4], over 10000 nM.

Turning to `O=C(NO)[C@H]1C[C@H](n2cc(-c3ccccc3)nn2)CN1S(=O)(=O)c1ccc(Cl)c(Cl)c1`, the Ki is 1.55 µM in assay [1], over 100 µM in assay [2] and over 100 µM in assay [3].

For the compound `O=C(NO)[C@H]1C[C@@H](NS(=O)(=O)c2ccc(-c3ccccc3)cc2)CN1S(=O)(=O)c1ccc(Cl)c(Cl)c1`, the Ki in assay [1] was 0.541 µM; in assay [2] it was over 100 µM; in assay [3] it was 24.8 µM; in assay [5], over 100 µM; in assay [6], 67.2 µM; in assay [4] it was over 10000 nM.

Take `O=C(NO)[C@H]1C[C@H](NS(=O)(=O)c2ccc(-c3ccccc3)cc2)CN1S(=O)(=O)c1ccc(Cl)c(Cl)c1`: the Ki in assay [1] was 0.057 µM; in assay [2] it was over 100 µM; in assay [3], 6.68 µM; in assay [5], over 100 µM; in assay [6], 98.5 µM; in assay [4], 328 nM.

For `O=C(Nc1ccc(C(=O)Nc2ccc(S(=O)(=O)N3CCC[C@@H]3C(=O)NO)cc2)cc1)OCc1ccccc1`, the inhibition constant (Ki) in assay [1] is 0.032 µM; in assay [2], over 100 µM; in assay [3], over 100 µM; in assay [4] it was 0.044 nM.

As to `COc1ccc(S(=O)(=O)N2CCC[C@@H]2C(=O)NO)cc1`, the Ki was 0.02 µM in assay [1], over 100 µM in assay [2] and over 100 µM in assay [3].

For `COc1ccc(S(=O)(=O)N2C[C@@H](NS(=O)(=O)c3ccc(-c4ccccc4)cc3)C[C@@H]2C(=O)O)cc1`, the inhibitory constant (Ki) was over 100 µM in assay [1]; 8.4 µM in assay [2]; 6.13 µM in assay [3]; 20.7 µM in assay [5]; 9.19 µM in assay [6]; over 100000 nM in assay [4].

With `COc1ccc(S(=O)(=O)N2C[C@H](NC(=O)C(C)(C)C)C[C@@H]2C(=O)NO)cc1`, the Ki is 0.123 µM in assay [1], over 100 µM in assay [2], over 100 µM in assay [3] and 26 nM in assay [4].

Take `O=C(Nc1ccc(S(=O)(=O)N2CCC[C@@H]2C(=O)NO)cc1)OCc1ccccc1`: the inhibition constant Ki in assay [1] is 0.473 µM; in assay [2], over 100 µM; in assay [3], over 100 µM; in assay [4] it was 2.16 nM.

As for `CS(=O)(=O)N1C[C@@H](NS(=O)(=O)c2ccc(-c3ccccc3)cc2)C[C@@H]1C(=O)NO`, the Ki is 3.88 µM in assay [1]; over 100 µM in assay [2]; over 100 µM in assay [3]; over 100 µM in assay [5]; 47 µM in assay [6]; 2260 nM in assay [4].

Consider `O=C(NO)[C@H]1C[C@H](NS(=O)(=O)c2ccc(-c3ccccc3)cc2)CN1S(=O)(=O)c1ccc(-c2ccccc2)cc1`, for which the Ki is 0.294 µM in assay [1]; over 100 µM in assay [2]; over 100 µM in assay [3]; 21.4 µM in assay [5]; 8.82 µM in assay [6]; 54 nM in assay [4].

For `COc1ccc(S(=O)(=O)N2C[C@@H](NS(=O)(=O)c3ccc(-c4ccccc4)cc3)C[C@@H]2C(=O)NO)cc1`, the inhibitory constant (Ki) in assay [1] was 0.482 µM; in assay [2], over 100 µM; in assay [3] it was over 100 µM; in assay [5], over 100 µM; in assay [6], over 100 µM; in assay [4], 406 nM.

Turning to `O=C(Nc1ccc(S(=O)(=O)N2CCC[C@@H]2C(=O)NO)cc1)c1ccc([N+](=O)[O-])cc1`, the Ki in assay [1] was 0.00011 µM; in assay [2] it was over 100 µM; in assay [3], over 100 µM; in assay [4], 0.087 nM.

As to `O=C(NO)[C@H]1C[C@H](NS(=O)(=O)c2ccc(-c3ccccc3)cc2)CN1S(=O)(=O)c1ccc(OC(F)(F)F)cc1`, the inhibition constant (Ki) in assay [1] was over 100 µM; in assay [2], over 100 µM; in assay [3], over 100 µM; in assay [5], over 100 µM; in assay [6] it was over 100 µM; in assay [4], over 100000 nM.

On to `O=C(NO)[C@H]1CCCN1S(=O)(=O)c1ccc(C#Cc2ccccc2)cc1`, for which the inhibitory constant (Ki) in assay [1] is 0.00083 µM; in assay [2], over 100 µM; in assay [3], over 100 µM; in assay [4], 0.25 nM.

On to `O=C(NO)[C@H]1C[C@H](NS(=O)(=O)c2ccc(-c3ccccc3)cc2)CN1S(=O)(=O)c1ccc([N+](=O)[O-])cc1`, for which the Ki in assay [1] was over 100 µM; in assay [2], 52.9 µM; in assay [3], 44.8 µM; in assay [5], 23.3 µM; in assay [6], over 100 µM.
